Measured values reported in article PMC8333309, “Mechanism of LolCDE as a molecular extruder of bacterial triacylated lipoproteins” (Nature Communications, 2021).

Target: T1, LolCDE (Escherichia coli, UniProt P75957)
T1 construct: gene lolD; co-expressed in E. coli BL21(DE3); purified in DDM, reconstituted into MSP1D1/POPG nanodiscs; co-purifies with lipoprotein; with Lipoprotein-releasing system transmembrane protein LolC; Lipoprotein-releasing system transmembrane protein LolE
T1 sequence (P75957 1-233): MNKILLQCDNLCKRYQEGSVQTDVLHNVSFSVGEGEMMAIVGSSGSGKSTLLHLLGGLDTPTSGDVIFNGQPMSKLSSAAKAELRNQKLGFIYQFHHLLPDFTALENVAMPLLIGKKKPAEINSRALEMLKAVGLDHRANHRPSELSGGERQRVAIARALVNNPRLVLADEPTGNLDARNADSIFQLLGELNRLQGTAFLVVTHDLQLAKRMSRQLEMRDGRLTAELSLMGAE
T1 sequence (P0ADC3 1-399 partner): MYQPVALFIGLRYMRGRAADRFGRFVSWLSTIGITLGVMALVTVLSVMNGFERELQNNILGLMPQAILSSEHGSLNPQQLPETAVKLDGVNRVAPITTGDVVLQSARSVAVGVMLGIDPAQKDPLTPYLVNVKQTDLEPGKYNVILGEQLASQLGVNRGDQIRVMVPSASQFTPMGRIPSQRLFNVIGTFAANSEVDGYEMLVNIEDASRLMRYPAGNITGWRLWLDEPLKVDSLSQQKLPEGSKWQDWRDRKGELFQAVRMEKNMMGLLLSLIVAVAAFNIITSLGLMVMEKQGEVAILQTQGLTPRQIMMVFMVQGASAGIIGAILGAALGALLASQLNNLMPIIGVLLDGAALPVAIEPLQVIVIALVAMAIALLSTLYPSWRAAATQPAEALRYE
T1 sequence (P75958 2-414 partner): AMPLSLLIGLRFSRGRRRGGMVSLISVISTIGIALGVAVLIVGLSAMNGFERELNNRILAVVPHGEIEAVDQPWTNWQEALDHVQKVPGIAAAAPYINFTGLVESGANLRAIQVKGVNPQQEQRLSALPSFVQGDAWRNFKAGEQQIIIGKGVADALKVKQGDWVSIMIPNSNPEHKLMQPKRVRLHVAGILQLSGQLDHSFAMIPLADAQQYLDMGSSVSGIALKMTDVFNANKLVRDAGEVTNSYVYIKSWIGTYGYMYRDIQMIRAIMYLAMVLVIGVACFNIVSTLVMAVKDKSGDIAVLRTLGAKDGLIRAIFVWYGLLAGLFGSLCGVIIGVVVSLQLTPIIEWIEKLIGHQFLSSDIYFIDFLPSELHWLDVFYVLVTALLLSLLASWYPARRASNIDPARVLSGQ
Assay: colorimetric phosphate-release ATPase assay
Format: biochemical
Settings: LolCDE in nanodiscs; 4 mM ATP, 4 mM MgCl2, pH 8, 37 °C; traps ADP-vanadate in the ATP site

[O]=[V]([OH])([OH])[OH] [orthovanadate]
% inhibition at 0.1 mM: ~ 90%
